Test [1] has as its system P. aeruginosa CDC-0090. As to the kind of experiment: microbe, parasite or virus in culture. The class given is cell-based. Conditions: Pseudomonas aeruginosa, CDC0090, read-out: Minimum inhibitory concentration, P. aeruginosa CDC-0090.
For test [2], the system named is A. baumannii CDC-0045. As to the kind of experiment: microbe, parasite or virus in culture. The class given is cell-based. Particulars: Acinetobacter baumannii, CDC0045, read-out: MIC, A. baumannii CDC-0045.
In test [3] the test system is B. thailandensis ATCC 700388. Description: microbe, parasite or virus in culture. The class given is cell-based. Particulars: Burkholderia thailandensis, ATCC700388, read-out: Minimum inhibitory concentration (MIC), B. thailandensis ATCC 700388.
Test [4] has as its system P. aeruginosa ATCC 27853. As to the kind of experiment: microbe, parasite or virus in culture. The class given is cell-based. Conditions: Pseudomonas aeruginosa, ATCC27853, read-out: Minimum inhibitory concentration, P. aeruginosa ATCC 27853.
Test [5] concerns P. aeruginosa CDC-0054. As to the kind of experiment: microbe, parasite or virus in culture. The class given is cell-based. Particulars: Pseudomonas aeruginosa, CDC0054, read-out: Minimum inhibitory concentration, P. aeruginosa CDC-0054.
For test [6], the system named is A. baumannii ATCC 17978. As to the kind of experiment: microbe, parasite or virus in culture. The class given is cell-based. Conditions: Acinetobacter baumannii, ATCC17978, read-out: MIC, A. baumannii ATCC 17978.
Test [7] has as its system A. baumannii CDC-0036. Description: microbe, parasite or virus in culture. The class given is cell-based. Particulars: Acinetobacter baumannii, CDC0036, read-out: MIC, A. baumannii CDC-0036.
The subject of test [8] is A. baumannii 1258916. As to the kind of experiment: microbe, parasite or virus in culture. The class given is cell-based, Acinetobacter baumannii. Particulars: Acinetobacter baumannii, 1258916, read-out: MIC, A. baumannii 1258916.
Test [9] has as its target T1, PBP3 from Pseudomonas aeruginosa (PAO1) (Pseudomonas aeruginosa, UniProt G3XD46).
T1 construct: made in house
Description: Bocillin-FL fluorescence polarization competition binding, P. aeruginosa PBP3. Conditions: Binding affinity to P. aeruginosa PBP3; fluorescence polarization competition binding assay using Bocillin-FL; read-out: P. aeruginosa PBP3 Potency. In a few lines: (§1)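 Purified PBP was preincubated with inhibitor (E. coli PBP3 1.5 μM, 30 min; P. aeruginosa PBP3 0.75 μM, A. baumannii PBP3 0.2 μM and PBP1a 1 μM, 15 min), then Bocillin-FL (0.1 μM; 0.05 μM for PBP1a) added and FP read up to 60 min. EC50 = 50% loss of bound probe.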
Background: Fluorescence polarisation rises when a labelled molecule tumbles more slowly, as on binding a larger partner.

Test [10] deals with T2, PBP3 from Acinetobacter baumannii (ATCC 19606) (Acinetobacter baumannii, UniProt A0ABX6CK25).
T2 sequence (A0ABX6CK25 64-610): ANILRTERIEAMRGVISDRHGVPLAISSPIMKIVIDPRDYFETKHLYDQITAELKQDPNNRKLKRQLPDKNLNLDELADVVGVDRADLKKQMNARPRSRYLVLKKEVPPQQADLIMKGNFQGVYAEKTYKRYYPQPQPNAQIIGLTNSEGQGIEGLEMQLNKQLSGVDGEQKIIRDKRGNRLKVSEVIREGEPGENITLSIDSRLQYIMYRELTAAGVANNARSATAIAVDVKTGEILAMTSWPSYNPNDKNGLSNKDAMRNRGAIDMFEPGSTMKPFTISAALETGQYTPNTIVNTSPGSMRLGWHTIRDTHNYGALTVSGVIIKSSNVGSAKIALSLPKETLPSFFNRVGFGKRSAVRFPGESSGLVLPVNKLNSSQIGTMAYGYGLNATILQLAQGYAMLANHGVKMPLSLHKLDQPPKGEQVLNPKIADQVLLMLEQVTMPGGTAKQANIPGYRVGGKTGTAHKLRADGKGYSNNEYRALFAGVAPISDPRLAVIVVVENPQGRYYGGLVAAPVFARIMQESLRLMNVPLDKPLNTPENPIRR
As to the kind of experiment: Bocillin-FL fluorescence polarization competition binding, A. baumannii PBP3. Conditions: fluorescence polarization competition binding assay using Bocillin-FL; read-out: A. baumannii PBP3 Potency. In a few lines:
as §1

Values after ≈ are worked out from the molar mass of the structure shown. Some results are limits rather than exact numbers.

T1 sequence (G3XD46 whole entry): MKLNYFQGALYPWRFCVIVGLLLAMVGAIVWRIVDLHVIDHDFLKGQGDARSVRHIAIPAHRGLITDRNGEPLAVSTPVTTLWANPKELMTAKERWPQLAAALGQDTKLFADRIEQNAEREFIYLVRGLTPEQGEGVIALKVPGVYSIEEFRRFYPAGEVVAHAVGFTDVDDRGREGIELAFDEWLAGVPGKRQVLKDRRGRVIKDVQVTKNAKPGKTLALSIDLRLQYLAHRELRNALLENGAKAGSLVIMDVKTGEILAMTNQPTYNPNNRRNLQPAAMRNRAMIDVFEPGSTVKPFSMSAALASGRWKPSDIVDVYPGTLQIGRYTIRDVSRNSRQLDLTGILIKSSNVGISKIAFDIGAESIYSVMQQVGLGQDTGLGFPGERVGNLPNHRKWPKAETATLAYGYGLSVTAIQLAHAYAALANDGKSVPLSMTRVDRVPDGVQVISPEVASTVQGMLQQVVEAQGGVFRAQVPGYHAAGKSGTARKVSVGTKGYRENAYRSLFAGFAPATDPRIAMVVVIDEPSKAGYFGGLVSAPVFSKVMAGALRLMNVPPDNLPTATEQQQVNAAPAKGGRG

As for `O=C(NCCCS(=O)(=O)N1CCN(C(=O)NC(C(=O)N[C@H]2Cc3ccc(F)c(C(=O)O)c3OB2O)c2cc(F)c(O)c(O)c2Cl)C1=O)Nc1ccncc1` (stereo partly drawn) [Example 291, (3R)-3-(2-(2-chloro-5-fluoro-3,4-dihydroxyphenyl)-2-(2-oxo-3-((3-(3-(pyridin-4-yl)ureido)propyl)sulfonyl)imidazolidine-1-carboxamido)acetamido)-7-fluoro-2-hydroxy-3,4-dihydro-2H-benzo[e][1,2]oxaborinine-8-carboxylic acid], the MIC in [1] is 2 to 4 µg/mL (≈ 2.51 to 5.03 µM); in test [2], 2 to 4 µg/mL (≈ 2.51 to 5.03 µM); in test [3], 2 to 4 µg/mL (≈ 2.51 to 5.03 µM); in [4] it was 2 to 4 µg/mL (≈ 2.51 to 5.03 µM); in test [5], 2 to 4 µg/mL (≈ 2.51 to 5.03 µM); in [6], < 1 µg/mL. In addition, the MIC in [7] was 2 to 4 µg/mL (≈ 2.51 to 5.03 µM); in test [8] it was < 1 µg/mL. Besides, the IC50 in test [9] and in [10] was < 10 µM in each case.
For `O=C(O)c1c(F)ccc2c1OB(O)[C@@H](NC(=O)C(NC(=O)N1CCN(Cc3ccc(O)c(O)c3Cl)C(=O)C1=O)c1cc(F)c(O)c(O)c1Cl)C2` (stereo partly drawn) [Example 292, (3R)-3-(2-(4-(2-chloro-3,4-dihydroxybenzyl)-2,3-dioxopiperazine-1-carboxamido)-2-(2-chloro-5-fluoro-3,4-dihydroxyphenyl)acetamido)-7-fluoro-2-hydroxy-3,4-dihydro-2H-benzo[e][1,2]oxaborinine-8-carboxylic acid], the MIC in test [1] is < 1 µg/mL; in test [2], > 128 µg/mL; in [3], > 128 µg/mL; in [4] it was < 1 µg/mL; in test [5], < 1 µg/mL; in test [6], < 1 µg/mL. Besides, the MIC in [7] and in test [8] was > 128 µg/mL each time. In addition, the IC50 in [9] and in test [10] was < 10 µM in each case.
`O=C(O)c1c(F)ccc2c1OB(O)[C@@H](NC(=O)C(NC(=O)N1CCN(C3CCN(C(=O)c4cccc(O)c4)CC3)C(=O)C1=O)c1cc(F)c(O)c(O)c1Cl)C2` (stereo partly drawn) [Example 293, (3R)-3-(2-(2-chloro-5-fluoro-3,4-dihydroxyphenyl)-2-(4-(1-(3-hydroxybenzoyl)piperidin-4-yl)-2,3-dioxopiperazine-1-carboxamido)acetamido)-7-fluoro-2-hydroxy-3,4-dihydro-2H-benzo[e][1,2]oxaborinine-8-carboxylic acid]: the MIC in test [1] is 2 to 4 µg/mL (≈ 2.54 to 5.09 µM); in [2] it was < 1 µg/mL; in test [3], < 1 µg/mL; in test [4], 2 to 4 µg/mL (≈ 2.54 to 5.09 µM); in test [5], < 1 µg/mL; in test [6] it was < 1 µg/mL. The MIC in test [7] and in [8] was < 1 µg/mL each time. Besides, the IC50 in test [9] and in test [10] was < 10 µM in each case.
Regarding `O=C(NCCCN1CCN(C(=O)N[C@@H](C(=O)N[C@H]2Cc3ccc(F)c(C(=O)O)c3OB2O)c2cc(F)c(O)c(O)c2Cl)C(=O)C1=O)c1ccncc1` [Example 294, (R)-3-((R)-2-(2-chloro-5-fluoro-3,4-dihydroxyphenyl)-2-(4-(3-(isonicotinamido)propyl)-2,3-dioxopiperazine-1-carboxamido)acetamido)-7-fluoro-2-hydroxy-3,4-dihydro-2H-benzo[e][1,2]oxaborinine-8-carboxylic acid], the MIC in test [1], in [2], in test [3], in test [4], in test [5] and in test [6] was < 1 µg/mL each time. For the same compound, the MIC in test [7] and in test [8] was < 1 µg/mL each time. The IC50 in test [9] and in test [10] was < 10 µM throughout.
`O=C(NCCCN1CCN(C(=O)NC(C(=O)N[C@H]2Cc3ccc(F)c(C(=O)O)c3OB2O)c2cc(F)c(O)c(O)c2Cl)C(=O)C1=O)c1ccncc1Cl` (stereo partly drawn) [Example 295, (3R)-3-(2-(2-chloro-5-fluoro-3,4-dihydroxyphenyl)-2-(4-(3-(3-chloroisonicotinamido)propyl)-2,3-dioxopiperazine-1-carboxamido)acetamido)-7-fluoro-2-hydroxy-3,4-dihydro-2H-benzo[e][1,2]oxaborinine-8-carboxylic acid]: the MIC in [1] was < 1 µg/mL; in [2] it was < 1 µg/mL; in test [3] it was 2 to 4 µg/mL (≈ 2.57 to 5.13 µM); in [4], 2 to 4 µg/mL (≈ 2.57 to 5.13 µM); in test [5], 2 to 4 µg/mL (≈ 2.57 to 5.13 µM); in test [6], < 1 µg/mL. Moreover, the MIC was 2 to 4 µg/mL (≈ 2.57 to 5.13 µM) in test [7] and < 1 µg/mL in test [8]. For the same compound, the IC50 in test [9] and in [10] was < 10 µM each time.
On to `O=C(NCCCN1CCN(C(=O)N[C@@H](C(=O)N[C@H]2Cc3ccc(F)c(C(=O)O)c3OB2O)c2cc(F)c(O)c(O)c2Cl)C(=O)C1=O)c1ccncc1O` [Example 296, (R)-3-((R)-2-(2-chloro-5-fluoro-3,4-dihydroxyphenyl)-2-(4-(3-(3-hydroxyisonicotinamido)propyl)-2,3-dioxopiperazine-1-carboxamido)acetamido)-7-fluoro-2-hydroxy-3,4-dihydro-2H-benzo[e][1,2]oxaborinine-8-carboxylic acid], for which the MIC in test [1] is < 1 µg/mL; in [2], < 1 µg/mL; in test [3], 2 to 4 µg/mL (≈ 2.63 to 5.26 µM); in test [4], < 1 µg/mL; in test [5], < 1 µg/mL; in [6] it was < 1 µg/mL. The MIC in [7] and in [8] was < 1 µg/mL throughout. For the same compound, the IC50 in test [9] and in test [10] was < 10 µM each time.
As for `Cc1cnccc1C(=O)NCCCN1CCN(C(=O)NC(C(=O)N[C@H]2Cc3ccc(F)c(C(=O)O)c3OB2O)c2cc(F)c(O)c(O)c2Cl)C(=O)C1=O` (stereo partly drawn) [Example 297, (3R)-3-(2-(2-chloro-5-fluoro-3,4-dihydroxyphenyl)-2-(4-(3-(3-methylisonicotinamido)propyl)-2,3-dioxopiperazine-1-carboxamido)acetamido)-7-fluoro-2-hydroxy-3,4-dihydro-2H-benzo[e][1,2]oxaborinine-8-carboxylic acid], the MIC is < 1 µg/mL in test [1]; < 1 µg/mL in [2]; 2 to 4 µg/mL (≈ 2.64 to 5.27 µM) in test [3]; < 1 µg/mL in test [4]; 2 to 4 µg/mL (≈ 2.64 to 5.27 µM) in [5]; < 1 µg/mL in test [6]. Moreover, the MIC was 2 to 4 µg/mL (≈ 2.64 to 5.27 µM) in test [7] and < 1 µg/mL in test [8]. Moreover, the IC50 in test [9] and in [10] was < 10 µM each time.
In the case of `Cc1cc(C(=O)NCCCN2CCN(C(=O)N[C@@H](C(=O)N[C@H]3Cc4ccc(F)c(C(=O)O)c4OB3O)c3cc(F)c(O)c(O)c3Cl)C(=O)C2=O)ccn1` [Example 298, (R)-3-((R)-2-(2-chloro-5-fluoro-3,4-dihydroxyphenyl)-2-(4-(3-(2-methylisonicotinamido)propyl)-2,3-dioxopiperazine-1-carboxamido)acetamido)-7-fluoro-2-hydroxy-3,4-dihydro-2H-benzo[e][1,2]oxaborinine-8-carboxylic acid], the MIC is < 1 µg/mL in [1]; < 1 µg/mL in [2]; < 1 µg/mL in test [3]; 2 to 4 µg/mL (≈ 2.64 to 5.27 µM) in test [4]; < 1 µg/mL in test [5]; < 1 µg/mL in test [6]. Besides, the MIC in test [7] and in test [8] was < 1 µg/mL throughout. Also, the IC50 in [9] and in test [10] was < 10 µM in each case.

These data come from patent US20240270762A1, “PENICILLIN-BINDING PROTEIN INHIBITORS” (priority 2021, published 2024).
